Solubility in water data for one molecule are collected here from US8895762B2, “Process for the preparation of sulfamide derivatives” (Janssen Pharmaceutica NV, priority 2011, dated 2014).

This series is described as follows: solubility in water at room temperature. In kind it is physicochemical.

As for `NC[C@H]1COc2cc(Cl)ccc2O1` [compound of formula (V-S), (2S)-6-chloro-2,3-dihydro-1,4-benzodioxin-2-methanamine], the solubility in water is 0.35 g/100 g water.
